Results reported in publication PMC6825211 (Nature Communications, 2019).
“And” between values parts separate entries of the source, which are not always exact repeats. Equal values may be shown once.

Tests used:
LCK = LCK (Homo sapiens, UniProt P06239); test: biochemical; conditions: read-out: % inhibition by neratinib
[1] = Pharmacokinetic study, single i.p. dose; conditions: for AUC(0-inf): AUCINF
human islets = test: Western blot of pMST1 and caspase-3 cleavage under diabetogenic conditions; conditions: 72 h, six donors
MLD–STZ C57BL/6J mice [2] = test: MLD–STZ model: random fed blood glucose; format: in vivo, mouse; parameters: AUC glycemia: unit not given here
Protocol: C57Bl/6J mice were injected with 40 mg/kg streptozotocin or citrate buffer for 5 consecutive days. […] In d, basal glucose values were normalized to 100%. e Insulin secretion measured from retro-orbital blood draw during an ipGTT measured before (0 min) and 15 min after glucose injection; data are expressed as the ratio of secreted insulin at 15 min/0 min (stimulatory index). f The ratio of secreted insulin and glucose is calculated at fed state. g–i Mice were killed at day 35. g β-cell mass (given as percentage of the whole pancreatic section from ten sections spanning the width of the pancreas) and quantitative analyses from triple staining for h TUNEL or i Ki67, insulin, and DAPI expressed as percentage of TUNEL- or Ki67-positive β-cells ±SEM. An average number of 2331 (h), or 26369 (i) β-cells were counted. n = 9 mice/group for (a); n = 4–12 for (b); n = 5–15 for (c) and (d); n = 12–19 for (e); n = 8–14 for (f); n = 4–9 for (g); n = 4–11 for (h); and n = 6–11 mice/groupfor (i); all from three independent experiments).

AURORA-A = AURORA-A (Homo sapiens, UniProt O14965); test: Nanosyn kinase profiling, mobility shift assay; conditions: read-out: % inhibition by neratinib
AURORA-A, sequence (O14965 whole entry): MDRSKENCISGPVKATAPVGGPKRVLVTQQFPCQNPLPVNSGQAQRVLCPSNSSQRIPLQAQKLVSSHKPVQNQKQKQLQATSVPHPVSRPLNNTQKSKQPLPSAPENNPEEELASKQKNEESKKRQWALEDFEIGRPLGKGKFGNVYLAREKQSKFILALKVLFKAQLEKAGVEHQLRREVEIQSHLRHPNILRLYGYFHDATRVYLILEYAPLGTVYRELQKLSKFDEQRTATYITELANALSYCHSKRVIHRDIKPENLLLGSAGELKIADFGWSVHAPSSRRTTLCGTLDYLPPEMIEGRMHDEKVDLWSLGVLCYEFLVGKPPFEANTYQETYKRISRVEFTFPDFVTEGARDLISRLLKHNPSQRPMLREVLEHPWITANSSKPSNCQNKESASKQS

MST1–LATS2 signaling = test: Western blot of YAP-S127 phosphorylation (MST1/LATS2 overexpression); conditions: 10 μM, last 24 h
MST1 [3] = target: T1, MST1 (Homo sapiens, UniProt Q13043); test: biochemical
T1 sequence (Q13043 1-487): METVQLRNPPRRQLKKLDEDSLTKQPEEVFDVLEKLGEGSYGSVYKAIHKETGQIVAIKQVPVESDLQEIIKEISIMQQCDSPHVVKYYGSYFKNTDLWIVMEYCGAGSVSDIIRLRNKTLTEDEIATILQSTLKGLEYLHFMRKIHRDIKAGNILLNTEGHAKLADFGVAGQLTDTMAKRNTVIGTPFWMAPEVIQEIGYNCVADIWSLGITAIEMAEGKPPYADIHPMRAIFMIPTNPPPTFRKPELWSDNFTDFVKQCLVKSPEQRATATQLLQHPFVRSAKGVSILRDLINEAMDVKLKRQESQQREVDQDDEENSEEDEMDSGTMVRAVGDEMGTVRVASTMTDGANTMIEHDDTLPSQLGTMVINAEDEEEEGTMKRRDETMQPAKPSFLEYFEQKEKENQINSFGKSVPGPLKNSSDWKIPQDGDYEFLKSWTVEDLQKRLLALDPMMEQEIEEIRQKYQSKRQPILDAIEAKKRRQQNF

NEK2 = NEK2 (Homo sapiens, UniProt P51955); test: Nanosyn kinase profiling, mobility shift assay; conditions: read-out: % inhibition by neratinib
NEK2, sequence (P51955 whole entry): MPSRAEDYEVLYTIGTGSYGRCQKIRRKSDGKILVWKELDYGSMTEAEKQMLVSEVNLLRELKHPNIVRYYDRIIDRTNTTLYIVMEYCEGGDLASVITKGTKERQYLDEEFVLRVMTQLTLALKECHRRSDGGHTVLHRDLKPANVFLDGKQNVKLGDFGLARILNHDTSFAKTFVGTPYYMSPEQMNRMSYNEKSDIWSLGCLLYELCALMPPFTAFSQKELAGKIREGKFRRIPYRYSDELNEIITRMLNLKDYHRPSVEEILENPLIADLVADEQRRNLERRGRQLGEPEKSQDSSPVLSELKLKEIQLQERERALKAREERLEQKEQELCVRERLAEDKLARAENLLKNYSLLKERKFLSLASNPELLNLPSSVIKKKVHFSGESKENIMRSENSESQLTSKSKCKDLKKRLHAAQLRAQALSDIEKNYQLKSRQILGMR

INS-1E cells = test: Caspase-3 activation Nucview assay, TNFα/IFNγ with 33 mM glucose; format: cell-based, rat; conditions: up to 6.7 µM neratinib
P38-ALPHA = P38-ALPHA (Homo sapiens, UniProt Q16539); test: Nanosyn kinase profiling, mobility shift assay; conditions: read-out: % inhibition by neratinib
P38-ALPHA, sequence (Q16539 whole entry): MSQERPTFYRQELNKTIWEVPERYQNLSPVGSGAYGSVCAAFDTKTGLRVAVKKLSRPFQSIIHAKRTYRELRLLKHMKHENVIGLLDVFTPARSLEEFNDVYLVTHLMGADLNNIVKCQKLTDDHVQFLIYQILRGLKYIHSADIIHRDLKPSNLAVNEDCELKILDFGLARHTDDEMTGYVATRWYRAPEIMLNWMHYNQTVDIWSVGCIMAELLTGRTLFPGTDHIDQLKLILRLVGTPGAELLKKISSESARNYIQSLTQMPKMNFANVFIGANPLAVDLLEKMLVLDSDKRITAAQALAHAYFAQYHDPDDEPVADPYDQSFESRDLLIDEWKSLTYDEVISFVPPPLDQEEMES

MEK1 = MEK1 (Homo sapiens, UniProt Q02750); test: Nanosyn kinase profiling, mobility shift assay; format: biochemical
MEK1, sequence (Q02750 whole entry, species assumed): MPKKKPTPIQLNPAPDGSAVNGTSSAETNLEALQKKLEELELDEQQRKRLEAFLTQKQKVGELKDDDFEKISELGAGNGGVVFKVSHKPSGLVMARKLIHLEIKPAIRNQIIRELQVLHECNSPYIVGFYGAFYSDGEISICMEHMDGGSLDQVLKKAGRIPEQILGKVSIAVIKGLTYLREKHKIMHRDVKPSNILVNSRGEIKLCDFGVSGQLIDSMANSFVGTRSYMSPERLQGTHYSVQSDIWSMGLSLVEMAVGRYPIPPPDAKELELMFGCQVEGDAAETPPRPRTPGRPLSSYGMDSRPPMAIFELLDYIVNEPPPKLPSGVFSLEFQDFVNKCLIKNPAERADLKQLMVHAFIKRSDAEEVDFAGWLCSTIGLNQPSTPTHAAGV

MST1 [4] = target: T2, MST1 (Rattus norvegicus, UniProt A0A8I6A0F8); test: CETSA assay; format: cell-based; conditions: 5 μM, 2 h, INS-1E, 55 °C
T2 construct: endogenous in cells; host or cells: INS-1E (rat beta-cell line)
T2 sequence (A0A8I6A0F8 1-487): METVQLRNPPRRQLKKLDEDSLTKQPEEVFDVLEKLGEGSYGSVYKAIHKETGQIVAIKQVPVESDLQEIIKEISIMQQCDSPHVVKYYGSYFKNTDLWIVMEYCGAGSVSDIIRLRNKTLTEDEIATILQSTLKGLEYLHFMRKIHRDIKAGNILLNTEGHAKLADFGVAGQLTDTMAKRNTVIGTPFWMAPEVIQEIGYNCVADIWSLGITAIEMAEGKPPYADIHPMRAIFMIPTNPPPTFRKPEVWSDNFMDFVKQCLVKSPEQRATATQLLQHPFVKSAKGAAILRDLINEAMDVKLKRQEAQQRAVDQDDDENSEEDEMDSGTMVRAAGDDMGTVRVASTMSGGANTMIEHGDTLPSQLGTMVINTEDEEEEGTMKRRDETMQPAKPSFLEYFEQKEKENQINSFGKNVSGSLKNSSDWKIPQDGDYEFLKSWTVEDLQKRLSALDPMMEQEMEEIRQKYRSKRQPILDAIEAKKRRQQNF
Protocol: Thereafter, cells were pelleted at 200 g for 4 min and resuspended in PBS supplemented with phosphatase and protease inhibitor cocktail at the cell density of 3 Mill./100 µl. Each cell suspension was distributed into five 0.2-ml PCR tubes with 100 µl of cell suspension per tube. PCR tubes were heated at their designated temperature (43–55 °C) on a thermal cycler for 3 min, incubated at room temperature for 3 min, and snap-frozen in liquid nitrogen. Cell lysates were prepared by freezing–thawing the samples in liquid nitrogen twice, and soluble MST1 was detected by western blot analysis.

[5] = test system: isolated islets from WT C57Bl/6 mice; test: β-cell apoptosis (TUNEL), WT islets, IL-1β/IFNγ 72 h, neratinib added for last 24 h; format: cell-based, mouse; conditions: for TUNEL%: Cytokines+Nera
MLD–STZ C57BL/6J mice [6] = test: MLD–STZ model: ratio of secreted insulin and glucose at fed state; format: in vivo, mouse
CHEK1 = CHEK1 (Homo sapiens, UniProt O14757); test: Nanosyn kinase profiling, mobility shift assay; conditions: read-out: % inhibition by neratinib
CHEK1, sequence (O14757 whole entry): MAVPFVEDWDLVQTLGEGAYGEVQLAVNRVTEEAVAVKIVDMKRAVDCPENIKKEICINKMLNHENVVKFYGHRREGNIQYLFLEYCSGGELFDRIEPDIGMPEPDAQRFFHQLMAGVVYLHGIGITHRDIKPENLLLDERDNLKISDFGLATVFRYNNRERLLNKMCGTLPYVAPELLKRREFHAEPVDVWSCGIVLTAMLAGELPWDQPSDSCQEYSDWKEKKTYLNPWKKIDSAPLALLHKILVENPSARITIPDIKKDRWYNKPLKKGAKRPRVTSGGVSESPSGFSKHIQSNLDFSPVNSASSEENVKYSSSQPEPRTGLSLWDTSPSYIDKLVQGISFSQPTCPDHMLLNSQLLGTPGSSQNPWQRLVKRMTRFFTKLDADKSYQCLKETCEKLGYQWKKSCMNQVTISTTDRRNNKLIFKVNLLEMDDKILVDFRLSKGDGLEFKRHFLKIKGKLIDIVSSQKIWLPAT

[7] = 5 mg/kg IP, individual animals 1-3
[8] = read-out: % inhibition by neratinib

LCK, sequence (P06239 whole entry, species assumed): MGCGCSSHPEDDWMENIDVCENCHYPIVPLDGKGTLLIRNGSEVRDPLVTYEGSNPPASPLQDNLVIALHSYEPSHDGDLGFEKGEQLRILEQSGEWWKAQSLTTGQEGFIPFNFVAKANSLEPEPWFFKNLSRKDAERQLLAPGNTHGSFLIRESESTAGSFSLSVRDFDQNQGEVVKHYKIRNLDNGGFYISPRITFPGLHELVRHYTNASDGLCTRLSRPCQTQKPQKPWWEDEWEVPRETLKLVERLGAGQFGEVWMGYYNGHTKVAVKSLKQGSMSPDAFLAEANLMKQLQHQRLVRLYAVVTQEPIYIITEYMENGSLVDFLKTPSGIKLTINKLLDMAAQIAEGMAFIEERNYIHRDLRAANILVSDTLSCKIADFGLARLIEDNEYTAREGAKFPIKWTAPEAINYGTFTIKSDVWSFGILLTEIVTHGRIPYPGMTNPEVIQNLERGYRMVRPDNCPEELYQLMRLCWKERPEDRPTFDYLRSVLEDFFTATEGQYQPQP

Compound: CCOc1cc2ncc(C#N)c(Nc3ccc(OCc4ccccn4)c(Cl)c3)c2cc1NC(=O)/C=C/CN(C)C [neratinib]
- inhibition at 10 µM (LCK): 96%
- Cl ([1]; 5 mg/kg IP, AVERAGE n=3): 263.8 mL/min/kg
- VD ([1]; 5 mg/kg IP, AVERAGE n=3): 58.9 L/kg
- AUC0-24 [1, 7]: 1.9671 µM·h and 2.1252 µM·h
- AUCINF [1, 7]: 2.1537 µM·h and 2.2985 µM·h
- AUCLAST [1, 7]: 1.9671 µM·h and 2.1252 µM·h
- Cl [1, 7]: 253.1 mL/min/kg and 277.9 mL/min/kg and 260.4 mL/min/kg
- Cmax [1, 7]: 557 nM and 623 nM
- MRT [1, 7]: 2.3 h
- Tmax [1, 7]: 1.0 h
- VD [1, 7]: 86.9 L/kg and 46.7 L/kg and 43.1 L/kg
- t1/2 [1, 7]: 4.0 hr and 1.9 hr (2×)
- maximum concentration ([1]; 5 mg/kg single i.p. dose, plasma, fasted mice): 306 ng/mL
- AUC(0-t) ([1]; mouse, plasma, ip, 5 mg/kg, AUC0-24, 5 mg/kg IP, AVERAGE n=3): 1.9 µM·h
- AUC(0-t) ([1]; mouse, plasma, ip, 5 mg/kg, AUC0-24, 5 mg/kg IP, individual animals 1-3): 1.62 µM·h
- AUC(0-inf) ([1]; mouse, plasma, ip, 5 mg/kg, 5 mg/kg IP, AVERAGE n=3): 2.27 µM·h
- AUC(0-inf) ([1]; mouse, plasma, ip, 5 mg/kg, 5 mg/kg IP, individual animals 1-3): 2.36 µM·h
- AUC(0-t) ([1]; mouse, plasma, ip, 5 mg/kg, AUCLAST, 5 mg/kg IP, AVERAGE n=3): 1.9 µM·h
- AUC(0-t) ([1]; mouse, plasma, ip, 5 mg/kg, AUCLAST, 5 mg/kg IP, individual animals 1-3): 1.62 µM·h
- Cmax ([1]; mouse, plasma, ip, 5 mg/kg, Cmax, 5 mg/kg IP, AVERAGE n=3): 549 nM
- Cmax ([1]; mouse, plasma, ip, 5 mg/kg, Cmax, 5 mg/kg IP, individual animals 1-3): 469 nM
- MRT ([1]; mouse, plasma, ip, 5 mg/kg, MRT, 5 mg/kg IP, AVERAGE n=3): 2.4 h
- MRT ([1]; mouse, plasma, ip, 5 mg/kg, MRT, 5 mg/kg IP, individual animals 1-3): 2.7 h
- Tmax ([1]; mouse, plasma, ip, 5 mg/kg, Tmax, 5 mg/kg IP, AVERAGE n=3): 0.7 h
- Tmax ([1]; mouse, plasma, ip, 5 mg/kg, Tmax, 5 mg/kg IP, individual animals 1-3): 0.5 h
- half-life ([1]; mouse, plasma, ip, 5 mg/kg, t1/2, 5 mg/kg IP, AVERAGE n=3): 2.6 h
- Tmax ([1]; mouse, plasma, ip, 5 mg/kg, time of maximum concentration post dosing, 5 mg/kg single i.p. dose, average): 0.67 h
- cytokine- and high glucose/palmitate-induced MST1 activation and caspase-3 activation (human islets): potently and significantly inhibited
- glycemia in nondiabetic control mice (MLD–STZ C57BL/6J mice [2]; 5 mg/kg i.p. daily): no effect on glycemia
- glucose levels in STZ mice (MLD–STZ C57BL/6J mice [2]; 5 mg/kg i.p. daily, 35 days): lower glucose levels during the entire 35 days
- glycemia (MLD–STZ C57BL/6J mice [2]; NeraCtr (no STZ, neratinib 5 mg/kg i.p. daily), day 0, individual mice): 136 mg/dL and 120 mg/dL and 165 mg/dL and 122 mg/dL and 87 mg/dL and 80 mg/dL and 78 mg/dL and 130 mg/dL
- AUC glycemia (MLD–STZ C57BL/6J mice [2]; NeraCtr, Mean): 4215.5
- glycemia (MLD–STZ C57BL/6J mice [2]; NeraCtr, day 3, individual mice): 139 mg/dL and 103 mg/dL and 119 mg/dL and 117 mg/dL and 104 mg/dL and 116 mg/dL and 114 mg/dL and 149 mg/dL and 112 mg/dL
- glycemia (MLD–STZ C57BL/6J mice [2]; NeraCtr, day 7, individual mice): 100 mg/dL and 134 mg/dL and 130 mg/dL and 92 mg/dL and 120 mg/dL and 106 mg/dL and 114 mg/dL and 125 mg/dL and 111 mg/dL
- glycemia (MLD–STZ C57BL/6J mice [2]; NeraCtr, day 9, individual mice): 108 mg/dL and 93 mg/dL and 122 mg/dL and 89 mg/dL and 96 mg/dL and 109 mg/dL and 111 mg/dL and 90 mg/dL
- glycemia (MLD–STZ C57BL/6J mice [2]; NeraCtr, day 12, individual mice): 138 mg/dL and 112 mg/dL and 125 mg/dL and 100 mg/dL and 117 mg/dL and 105 mg/dL and 86 mg/dL and 133 mg/dL
- glycemia (MLD–STZ C57BL/6J mice [2]; NeraCtr, day 16, individual mice): 104 mg/dL and 92 mg/dL and 112 mg/dL and 106 mg/dL and 96 mg/dL and 88 mg/dL and 118 mg/dL and 93 mg/dL
- glycemia (MLD–STZ C57BL/6J mice [2]; NeraCtr, day 22, individual mice): 115 mg/dL and 102 mg/dL and 145 mg/dL and 144 mg/dL and 132 mg/dL and 113 mg/dL and 110 mg/dL and 103 mg/dL and 146 mg/dL
- glycemia (MLD–STZ C57BL/6J mice [2]; NeraCtr, day 28, individual mice): 109 mg/dL and 137 mg/dL and 141 mg/dL and 103 mg/dL and 110 mg/dL and 127 mg/dL and 112 mg/dL and 156 mg/dL and 106 mg/dL
- glycemia (MLD–STZ C57BL/6J mice [2]; NeraCtr, day 36, individual mice): 156 mg/dL and 132 mg/dL and 145 mg/dL and 146 mg/dL and 111 mg/dL and 114 mg/dL and 120 mg/dL and 109 mg/dL
- AUC glycemia (MLD–STZ C57BL/6J mice [2]; NeraCtr, individual mice): 4340.5 and 4217 and 4748 and 4310 and 3997 and 3944.5 and 3991 and 4247 and 4144.5
- glycemia (MLD–STZ C57BL/6J mice [2]; NeraSTZ (STZ + neratinib 5 mg/kg i.p. daily), day 0, individual mice): 112 mg/dL and 125 mg/dL and 148 mg/dL
- AUC glycemia (MLD–STZ C57BL/6J mice [2]; NeraSTZ, Mean): 7519.28
- glycemia (MLD–STZ C57BL/6J mice [2]; NeraSTZ, day 3, individual mice): 94 mg/dL and 102 mg/dL and 117 mg/dL
- glycemia (MLD–STZ C57BL/6J mice [2]; NeraSTZ, day 7, individual mice): 117 mg/dL and 131 mg/dL and 93 mg/dL
- glycemia (MLD–STZ C57BL/6J mice [2]; NeraSTZ, day 9, individual mice): 179 mg/dL and 138 mg/dL and 134 mg/dL
- glycemia (MLD–STZ C57BL/6J mice [2]; NeraSTZ, day 12, individual mice): 250 mg/dL and 310 mg/dL and 180 mg/dL
- glycemia (MLD–STZ C57BL/6J mice [2]; NeraSTZ, day 16, individual mice): 173 mg/dL and 303 mg/dL
- glycemia (MLD–STZ C57BL/6J mice [2]; NeraSTZ, day 22, individual mice): 209 mg/dL and 344 mg/dL
- glycemia (MLD–STZ C57BL/6J mice [2]; NeraSTZ, day 28, individual mice): 213 mg/dL and 229 mg/dL
- glycemia (MLD–STZ C57BL/6J mice [2]; NeraSTZ, day 36, individual mice): 214 mg/dL and 337 mg/dL and 230 mg/dL
- AUC glycemia (MLD–STZ C57BL/6J mice [2]; NeraSTZ, individual mice): 6636.5 and 8897.5 and 6783.5 and 7009 and 8879.5 and 5194.5 and 8003.5 and 8416 and 7853.5
- inhibition at 10 µM (AURORA-A): 28%
- MST1/LATS2-induced YAP-S127 phosphorylation (MST1–LATS2 signaling): strongly inhibited
- inhibition at 10 µM (MST1 [3]; [8]): 98%
- inhibition at 3 µM (MST1 [3]; read-out: MST1 inhibition): 97%
- inhibition at 10 µM (NEK2): 68%
- caspase-3 activation induced by TNFα/IFNγ and high glucose (INS-1E cells): largely inhibited
- inhibition at 10 µM (P38-ALPHA): 15%
- IC50 (MEK1; 12 points dose response): 1490 nM
- inhibition at 10 µM (MEK1; [8]): 73%
- thermal stabilization of MST1 in intact cells (MST1 [4]): MST1 stabilization at 55 °C
- TUNEL% ([5]; MEAN): 0.4111%
- TUNEL% ([5]; individual replicates): 0.4072% and 0.3399% and 0.4861%
- β-cell survival after cytokine-induced apoptosis ([5]; IL-1β/IFNγ 48 h, then 10 μM neratinib another 24 h): fully restored β-cell survival
- ins/gluc (MLD–STZ C57BL/6J mice [6]; NeraCtr, Mean): 4.232
- ins/gluc (MLD–STZ C57BL/6J mice [6]; NeraCtr, fed state, individual mice): 5.92 and 11.7581 and 5.035 and 1.3144 and 2.029 and 2.349 and 1.295 and 4.152
- ins/gluc (MLD–STZ C57BL/6J mice [6]; NeraSTZ, Mean): 2.006
- ins/gluc (MLD–STZ C57BL/6J mice [6]; NeraSTZ, fed state, individual mice): 2.868 and 0.965 (2×) and 1.859 and 3.923 and 1.035 and 2.9255 and 4.307 and 0.6012 and 1.262 and 1.53 and 2.798 and 0.7155 and 2.33
- inhibition at 10 µM (CHEK1): 27%
